In EP0560983B1, “New DNA sequence” (priority 1991, dated 1993):

Assays:
Assay type in all cases: biochemical, Brevibacterium sterolicum ATCC 21387
[1] = target: T1, cholesterol oxidase I (Brevibacterium sterolicum, UniProt P22637); assay: Substrate specificity (relative activity on each substrate); conditions: activity of cholesterol oxidase I on each substrate; cholesterol = 100
T1 construct: host or cells: Brevibacterium sterolicum ATCC 21387 (origin of the enzyme; how it was prepared is not described)
T1 sequence (P22637 46-552): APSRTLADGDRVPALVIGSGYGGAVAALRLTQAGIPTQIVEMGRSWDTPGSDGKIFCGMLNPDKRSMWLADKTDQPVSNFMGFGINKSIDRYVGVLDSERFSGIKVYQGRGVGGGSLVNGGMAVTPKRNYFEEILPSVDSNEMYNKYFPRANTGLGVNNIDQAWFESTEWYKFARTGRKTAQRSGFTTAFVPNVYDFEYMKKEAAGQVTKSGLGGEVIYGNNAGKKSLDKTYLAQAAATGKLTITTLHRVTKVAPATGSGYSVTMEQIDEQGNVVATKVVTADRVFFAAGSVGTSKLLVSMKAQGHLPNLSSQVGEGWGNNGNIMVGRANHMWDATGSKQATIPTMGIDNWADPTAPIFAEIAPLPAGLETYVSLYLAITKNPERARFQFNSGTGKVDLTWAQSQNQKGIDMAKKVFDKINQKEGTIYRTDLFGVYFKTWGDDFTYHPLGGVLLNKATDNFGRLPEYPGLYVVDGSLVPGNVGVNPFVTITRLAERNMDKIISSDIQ
Procedure: (§1) The working pH range was determined by assaying the activity at each pH (phosphate buffer, Tris-HCl buffer, sodium acetate buffer) after the reaction at 37°C for 5 minutes. […] The pH range is determined by treating the enzyme at 50°C for 60 minutes at each pH (phosphate buffer, Tris-HCl buffer, sodium acetate buffer) and then assaying the residual activity. Method for determination of titer The amount of enzyme which catalyzes the reaction of decomposing 1 µmole of cholesterol at 37°C for one minute in the presence of oxygen is defined as one unit. The titer is determined as follows. With shaking, the enzyme acts on cholesterol and 4-aminoantipyrine and phenol are reacted with the formed hydrogen peroxide in the presence of peroxidase to form quinoneimine pigment. Absorption of the thus formed quinoneimine pigment in the visible region is measured to determine the amount of hydrogen peroxide generated. Thus, the titer of the enzyme is determined. Hereafter specific activity is defined as activity per 1 mg of protein (unit/mg). […] The mixture is agitated. After maintaining at 37°C for 3 mintues, 0.2 mℓ of an enzyme solution is added to the mixture. With shaking, the reaction is carried out at 37°C for 5 to 10 minutes. Then, absorbance is measured at 500 nm (OD 500 nm). • (c) Calculation of titer One unit of cholesterol oxidase II corresponds to an enzyme activity which decomposes 1 µmole of cholesterol at 37°C for 1 minute. […] Optimum temperature The optimum temperature at a pH of 6.6 for 3 minutes of the reaction time was examined. […] After heat treatment at pH of 7.0 for 60 minutes in 0.05 M phosphate buffer, the residual activity was determined. […] Reaction rates of the two enzymes were measured in various concentrations of cholesterol. […] Michealis' constant was determined from the Line weaver-Burk plot [refer to J. Am. […] Determination of the amino acid sequence and nucleotide sequence of cholesterol oxidase II Cholesterol oxidase II may be divided into 2 subunits, using reverse phase high performance liquid chromatography. Each subunit is digested with a protease, for example trypsin, and the digested subunit is further fractionated using high performance liquid chromatography, to obtain protease-digested fragments. The amino acid sequence of each digested fragment may be analyzed according to the conventional method, with the amino acid sequencer.

[2] = test system: cholesterol oxidase II; assay: as above; conditions: for Relative Activity (%): activity of cholesterol oxidase II on each substrate, cholesterol = 100; for Substrate specificity: whether cholesterol oxidase II acts on the substrate, in words
Procedure: as §1

[3] = target: T1, cholesterol oxidase I; assay: Influence of inhibitor on enzyme activity; conditions: inhibitor at 1 mM, activity in the absence of the inhibitor = 100
Excerpt: (§2) (3) Working pH for activity: The working pH of cholesterol oxidase II is in a range of 5.0 to 7.5, whereas that of cholesterol oxidase I is in a range of 6.0 to 7.5. […]
(§3) (d) Based on the amount of hydrogen peroxide formed, the amount of oxygen consumed and identification of the reaction product as described in (a), (b) and (c), it is recognized that the enzyme of the present invention acts on specifically cholesterol, that cholesterol was oxidized into hydrogen peroxide and 4-cholesten-3-one; that is, this enzyme has a cholesterol oxidase activity. [drawing 2] wherein R represents [drawing 3] • II. Working pH range and stable pH range The working pH for the activity is in a range of 5.0 to 7.5. The working pH range was determined by assaying the activity at each pH (phosphate buffer, Tris-HCl buffer, sodium acetate buffer) after the reaction at 37°C for 5 minutes. […] The pH range is determined by treating the enzyme at 50°C for 60 minutes at each pH (phosphate buffer, Tris-HCl buffer, sodium acetate buffer) and then assaying the residual activity. Method for determination of titer The amount of enzyme which catalyzes the reaction of decomposing 1 µmole of cholesterol at 37°C for one minute in the presence of oxygen is defined as one unit. The titer is determined as follows. With shaking, the enzyme acts on cholesterol and 4-aminoantipyrine and phenol are reacted with the formed hydrogen peroxide in the presence of peroxidase to form quinoneimine pigment. Absorption of the thus formed quinoneimine pigment in the visible region is measured to determine the amount of hydrogen peroxide generated. Thus, the titer of the enzyme is determined. Hereafter specific activity is defined as activity per 1 mg of protein (unit/mg). Furthermore, an amount of enzyme protein is determined by absorbance at 280 nm (1 mg/mℓ when absorbance is 1). • (a) Principle The enzyme activity is determined by reacting hydrogen peroxide generated by the enzyme with 4-aminoantipyrine and phenol in the presence of peroxidase and quantitatively determining the formed quinoneimine pigment. The reaction is shown by the following equations (1) and (2). [drawing 4] wherein R represents [drawing 5] [drawing 6] • (b) Procedure In a test tube, there are charged 1.0 ml of 3 mM cholesterol solution (which is prepared by adding 6 mℓ of 50 mM cholesterol ethanol solution to 94 mℓ of 1.05% Triton X-100 solution with stirring, heating the mixture for 10 minutes on a water bath, cooling the mixture in water, adding distilled water to the mixture until the total volume is 100 mℓ; and is not allowed to be used 30 minutes or longer after preparation), 0.3 mℓ of 50 mM sodium bilate solution, 0.3 mℓ of 0.5 mM potassium-sodium phosphate buffer (pH 6.6), 0.5 mℓ of 42 mM phenol, 0.5 mℓ of 2.4 mM 4-aminoantipyrine and 0.2 mℓ of 115 units/mℓ horseradish-derived peroxidase. The mixture is agitated. After maintaining at 37°C for 3 mintues, 0.2 mℓ of an enzyme solution is added to the mixture. With shaking, the reaction is carried out at 37°C for 5 to 10 minutes. Then, absorbance is measured at 500 nm (OD 500 nm). • (c) Calculation of titer One unit of cholesterol oxidase II corresponds to an enzyme activity which decomposes 1 µmole of cholesterol at 37°C for 1 minute. On the other hand, it is reported that absorption coefficient of 1 mM quinoneimine is 5.33 [Clinical Chemistry, 20, 470 (1974)]. […]

[4] = test system: cholesterol oxidase II; assay: Influence of inhibitor on enzyme activity; conditions: for Relative Activity (%): cholesterol oxidase II, inhibitor at 1 mM, activity in the absence of the inhibitor = 100; for Inhibition: whether cholesterol oxidase II is inhibited, in words
Excerpt: as §2, §3

C[C@]12CC[C@@H](O)C[C@@H]1CC[C@@H]1[C@@H]2CC[C@]2(C)C(=O)CC[C@@H]12 [Androsterone]
Relative Activity (%) [1]: 0% | Relative Activity (%) [2]: 0% | Substrate specificity [2]: does not act on

CC[C@H](CC[C@@H](C)[C@H]1CC[C@H]2[C@@H]3CC=C4C[C@@H](O)CC[C@]4(C)[C@H]3CC[C@]12C)C(C)C [β-Sitosterol]
Relative Activity (%) [1]: 19.7% | Relative Activity (%) [2]: 82.0% | Substrate specificity [2]: acts on

CC(=O)[C@H]1CC[C@H]2[C@@H]3CC=C4C[C@@H](O)CC[C@]4(C)[C@H]3CC[C@]12C [Pregnenolone]
Relative Activity (%) [1]: 22.4% | Relative Activity (%) [2]: 32.9% | Substrate specificity [2]: acts on

C[C@]12CC[C@@H]3c4ccc(O)cc4CC[C@H]3[C@@H]1CC[C@@H]2O [Estradiol]
Relative Activity (%) [1]: 0%

O=[N+]([O-])[O-].[Ag+] [AgNO3, silver nitrate]
Relative Activity (%) [3]: 0% | Relative Activity (%) [4]: 1.0% | Inhibition [4]: inhibited

CC(C)CCC[C@@H](C)[C@H]1CC[C@H]2[C@@H]3CC=C4C[C@@H](O)CC[C@]4(C)[C@H]3CC[C@]12C [Cholesterol, 5-cholesten-3-β-ol]
Relative Activity (%) [1]: 100% | Relative Activity (%) [2]: 100% | Substrate specificity [2]: acts on

CC[C@H](/C=C/[C@@H](C)[C@H]1CC[C@H]2[C@@H]3CC=C4C[C@@H](O)CC[C@]4(C)[C@H]3CC[C@]12C)C(C)C [Stigmasterol]
Relative Activity (%) [1]: 10.0% | Relative Activity (%) [2]: 64.4% | Substrate specificity [2]: acts on

Oc1cccc2cccnc12 [o-Hydroxyquinoline]
Relative Activity (%) [4]: 91.3% | Inhibition [4]: inhibited

CC(C)=CCC[C@@H](C)[C@H]1CC[C@@]2(C)C3=C(CC[C@]12C)[C@@]1(C)CC[C@H](O)C(C)(C)[C@@H]1CC3 [Lanosterol]
Relative Activity (%) [1]: 0% | Relative Activity (%) [2]: 0% | Substrate specificity [2]: does not act on

CCCCC/C=C\C/C=C\CCCCCCCC(=O)O[C@H]1CC[C@@]2(C)C(=CC[C@H]3[C@@H]4CC[C@H]([C@H](C)CCCC(C)C)[C@@]4(C)CC[C@@H]32)C1 [Cholesterol linoleate]
Relative Activity (%) [1]: 0% | Relative Activity (%) [2]: 0% | Substrate specificity [2]: does not act on

O=S(=O)(O)c1cc[c]([Hg][Cl])cc1 [p-Chloromercury benzenesulfonate]
Relative Activity (%) [4]: 87.0% | Inhibition [4]: inhibited

C[C@]12CC[C@H](O)CC1=CC[C@@H]1[C@@H]2CC[C@]2(C)C(=O)CC[C@@H]12 [Dehydroisoandrosterone]
Relative Activity (%) [1]: 41.4% | Relative Activity (%) [2]: 13.0% | Substrate specificity [2]: acts on

C=C1CC[C@H](O)C/C1=C/C=C1\CCC[C@]2(C)[C@@H]([C@H](C)CCCC(C)C)CC[C@@H]12 [Vitamin D3]
Relative Activity (%) [1]: 0% | Relative Activity (%) [2]: 0% | Substrate specificity [2]: does not act on
